Reference: publication PMC10416764, “Crystal structure of Prp16 in complex with ADP” (Acta Crystallographica. Section F, Structural Biology …, 2023)

Target: T1, ctPrp16 (302-920) (Thermochaetoides thermophila, UniProt G0S0F9)
T1 construct: gene CTHT_0009880; residues 302-920 (RecA1, RecA2, WH, HB, OB-fold); N- and C-terminally truncated; codon-optimized gene, E. coli Rosetta2 (DE3), pGEX-6P-3, GST tag cleaved by PreScission; one molecule per asymmetric unit
T1 sequence (G0S0F9 301-920 limits assumed): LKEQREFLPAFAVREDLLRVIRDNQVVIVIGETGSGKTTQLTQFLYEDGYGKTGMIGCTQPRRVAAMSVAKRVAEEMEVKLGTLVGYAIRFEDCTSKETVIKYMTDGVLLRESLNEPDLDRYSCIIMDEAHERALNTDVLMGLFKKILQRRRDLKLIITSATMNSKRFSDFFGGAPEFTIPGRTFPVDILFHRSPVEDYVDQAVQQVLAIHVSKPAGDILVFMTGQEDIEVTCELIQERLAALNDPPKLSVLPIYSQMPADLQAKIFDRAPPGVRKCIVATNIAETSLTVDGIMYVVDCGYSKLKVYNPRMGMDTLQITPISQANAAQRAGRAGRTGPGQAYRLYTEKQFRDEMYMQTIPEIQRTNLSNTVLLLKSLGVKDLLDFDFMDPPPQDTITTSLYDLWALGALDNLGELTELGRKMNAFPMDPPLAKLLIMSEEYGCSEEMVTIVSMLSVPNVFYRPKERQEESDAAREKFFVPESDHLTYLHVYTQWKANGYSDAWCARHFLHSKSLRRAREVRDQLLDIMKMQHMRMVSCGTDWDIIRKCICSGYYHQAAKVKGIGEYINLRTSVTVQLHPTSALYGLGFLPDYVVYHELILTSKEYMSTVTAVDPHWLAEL
Experiment: X-ray crystallography, […] A, co-crystallization
Assay type: binding
Conditions: Mg2+ bound; MES pH 6.5; 293 K; tenfold molar excess of ADP; nucleotide site between RecA1 and RecA2

Nc1ncnc2c1ncn2[C@@H]1O[C@H](COP(=O)(O)OP(=O)(O)O)[C@@H](O)[C@H]1O [ADP]
X-ray crystallography, 1.9 A, co-crystallization: The polder omit map clearly reveals the presence of ADP and a magnesium ion
